In article PMC11879280, “Antimicrobial activity of peptoids against Metallo-β-lactamase-producing Klebsiella pneumoniae, Acinetobacter baumannii, Pseudomonas aeruginosa, and other WHO priority pathogens, including Candida auris” (Journal of Applied Microbiology, 2025):
Like-named read-outs stand apart in the source and are kept apart here. Square brackets hold non-standard residues; d marks the D form. Ends that are not written are not given here. Peptide text beside a SMILES is read from it. Nspe = C[C@H](NCC(=O)O)c1ccccc1; Nlys = NCCCCNCC(=O)O

Experiments:
E. coli 005 = settings: E. coli 005
Procedure, shortened: (§1)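 Broth microdilution with 5 × 10^5 CFU/ml inoculum in cation-adjusted Mueller–Hinton broth for antibiotics or MHB for peptidomimetics; 16–20 h at 37°C, 120 rpm. MBC/MFC by plating on Trypticase Soya Agar with phosphatidylcholine and Tween 80; geometric mean MIC calculated across pathogens.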

En. cloacae 003 = settings: En. cloacae 003
Procedure, shortened: as §1

En. cloacae 001 = settings: En. cloacae 001
Procedure, shortened: as §1

[1] = test system: Enteroc. faecalis NCTC 13 379; settings: Enteroc. faecalis NCTC 13 379
Procedure, shortened: as §1

K. pneumoniae JIE4212 = settings: K. pneumoniae JIE4212
Procedure, shortened: as §1

K. pneumoniae JIE2709 = settings: K. pneumoniae JIE2709
Procedure, shortened: as §1

E. coli 0010 = settings: E. coli 0010
Procedure, shortened: as §1

E. coli 0011 = settings: E. coli 0011
Procedure, shortened: as §1

A. baumannii 006 = settings: A. baumannii 006
Procedure, shortened: as §1

E. coli 0015 = settings: E. coli 0015
Procedure, shortened: as §1

En. cloacae 005 = settings: En. cloacae 005
Procedure, shortened: as §1

S. aureus 105 = settings: S. aureus 105
Procedure, shortened: as §1

P. aeruginosa AR-1270 = settings: P. aeruginosa AR-1270
Procedure, shortened: as §1

P. aeruginosa 33 = settings: P. aeruginosa 33
Procedure, shortened: as §1

S. aureus 38 = settings: S. aureus 38
Procedure, shortened: as §1

A. baumannii 008 = settings: A. baumannii 008
Procedure, shortened: as §1

A. baumannii ATCC 19 606 = settings: A. baumannii ATCC 19 606
Procedure, shortened: as §1

A. baumannii 005 = settings: A. baumannii 005
Procedure, shortened: as §1

K. pneumoniae JIE2713 = settings: K. pneumoniae JIE2713
Procedure, shortened: as §1

P. aeruginosa 216 = settings: P. aeruginosa 216
Procedure, shortened: as §1

A. baumannii 007 = settings: A. baumannii 007
Procedure, shortened: as §1

S. aureus 04 = settings: S. aureus 004
Procedure, shortened: as §1

S. aureus 117 = settings: S. aureus 117
Procedure, shortened: as §1

Enterobacteriaceae = assay: Geometric mean MIC, therapeutic index and selectivity ratio, Enterobacteriaceae; assay type: cell-based; settings: Enterobacteriaceae (E. coli, K. pneumoniae, and E. aerogenes)
Procedure, shortened: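 Inoculum 5 × 10^5 CFU ml^−1 in CAMHB for antibiotics or MHB for peptidomimetics; incubated 37°C, 120 rpm, 16–20 h. Suspensions plated on Trypticase Soya Agar with phosphatidylcholine and Tween 80 for MBC/MFC. Geometric mean MIC computed across pathogens; therapeutic index calculated by formula.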

[2] = MHB (melimine/Mel4 with 0.2% BSA, 0.01% acetic acid), mean MIC

TLISWIKNKRKQRPRVSRRRRRRGGRRRR [Melimine]
MIC of peptidomimetics (E. coli 005; [2]): 250 µg/mL
MIC of peptidomimetics (E. coli 005; value in brackets): 66.0 µM
MIC of peptidomimetics (En. cloacae 003; [2]): 125 µg/mL
MIC of peptidomimetics (En. cloacae 003; value in brackets): 33.0 µM
MIC of peptidomimetics (En. cloacae 001; [2]): 125 µg/mL
MIC of peptidomimetics (En. cloacae 001; value in brackets): 33.0 µM
MIC of peptidomimetics [1, 2]: 500 µg/mL
MIC of peptidomimetics (K. pneumoniae JIE4212; [2]): 250 µg/mL
MIC of peptidomimetics (K. pneumoniae JIE4212; value in brackets): 66.0 µM
MIC of peptidomimetics (K. pneumoniae JIE2709; [2]): 500 µg/mL
MIC of peptidomimetics (E. coli 0010; [2]): 250 µg/mL
MIC of peptidomimetics (E. coli 0010; value in brackets): 66.0 µM
MIC of peptidomimetics (E. coli 0011; [2]): 125 µg/mL
MIC of peptidomimetics (E. coli 0011; value in brackets): 33.0 µM
MIC of peptidomimetics (A. baumannii 006; [2]): 62.5 µg/mL
MIC of peptidomimetics (A. baumannii 006; value in brackets): 16.5 µM
MIC of peptidomimetics (E. coli 0015; [2]): 125 µg/mL
MIC of peptidomimetics (E. coli 0015; value in brackets): 33.0 µM
MIC of peptidomimetics (En. cloacae 005; [2]): 250 µg/mL
MIC of peptidomimetics (En. cloacae 005; value in brackets): 66.0 µM
MIC of peptidomimetics (S. aureus 105; [2]): 31.3 µg/mL
MIC of peptidomimetics (S. aureus 105; value in brackets): 8.2 µM
MIC of peptidomimetics (P. aeruginosa AR-1270; [2]): 500 µg/mL
MIC of peptidomimetics (P. aeruginosa 33; [2]): 62.5 µg/mL
MIC of peptidomimetics (P. aeruginosa 33; value in brackets): 16.5 µM
MIC of peptidomimetics (S. aureus 38; [2]): 31.3 µg/mL
MIC of peptidomimetics (S. aureus 38; value in brackets): 8.2 µM
MIC of peptidomimetics (A. baumannii 008; [2]): 250 µg/mL
MIC of peptidomimetics (A. baumannii 008; value in brackets): 66.0 µM
MIC of peptidomimetics (A. baumannii ATCC 19 606; [2]): 62.5 µg/mL
MIC of peptidomimetics (A. baumannii ATCC 19 606; value in brackets): 16.5 µM
MIC of peptidomimetics (A. baumannii 005; [2]): 125 µg/mL
MIC of peptidomimetics (A. baumannii 005; value in brackets): 33.0 µM
MIC of peptidomimetics (K. pneumoniae JIE2713; [2]): 125 µg/mL
MIC of peptidomimetics (K. pneumoniae JIE2713; value in brackets): 33.0 µM
MIC of peptidomimetics (P. aeruginosa 216; [2]): 500 µg/mL
MIC of peptidomimetics (A. baumannii 007; [2]): 125 µg/mL
MIC of peptidomimetics (A. baumannii 007; value in brackets): 33.0 µM
MIC of peptidomimetics (S. aureus 04; [2]): 31.3 µg/mL
MIC of peptidomimetics (S. aureus 04; value in brackets): 8.2 µM
MIC of peptidomimetics (S. aureus 117; [2]): 31.3 µg/mL
MIC of peptidomimetics (S. aureus 117; value in brackets): 8.2 µM
Geometric mean MICE (Enterobacteriaceae): 189.5 µg/mL

KNKRKRRRRRRGGRRRR [Mel4]
MIC of peptidomimetics (E. coli 005; [2]): 250 µg/mL
MIC of peptidomimetics (En. cloacae 003; [2]): 250 µg/mL
MIC of peptidomimetics (En. cloacae 001; [2]): 250 µg/mL
MIC of peptidomimetics [1, 2]: 500 µg/mL
MIC of peptidomimetics (K. pneumoniae JIE4212; [2]): 250 µg/mL
MIC of peptidomimetics (K. pneumoniae JIE2709; [2]): 62.5 µg/mL
MIC of peptidomimetics (E. coli 0010; [2]): 250 µg/mL
MIC of peptidomimetics (E. coli 0011; [2]): 62.5 µg/mL
MIC of peptidomimetics (A. baumannii 006; [2]): 62.5 µg/mL
MIC of peptidomimetics (E. coli 0015; [2]): 62.5 µg/mL
MIC of peptidomimetics (En. cloacae 005; [2]): 250 µg/mL
MIC of peptidomimetics (S. aureus 105; [2]): 62.5 µg/mL
MIC of peptidomimetics (P. aeruginosa AR-1270; [2]): 500 µg/mL
MIC of peptidomimetics (P. aeruginosa 33; [2]): 62.5 µg/mL
MIC of peptidomimetics (S. aureus 38; [2]): 62.5 µg/mL
MIC of peptidomimetics (A. baumannii 008; [2]): 250 µg/mL
MIC of peptidomimetics (A. baumannii ATCC 19 606; [2]): 125 µg/mL
MIC of peptidomimetics (A. baumannii 005; [2]): 250 µg/mL
MIC of peptidomimetics (K. pneumoniae JIE2713; [2]): 250 µg/mL
MIC of peptidomimetics (P. aeruginosa 216; [2]): 250 µg/mL
MIC of peptidomimetics (A. baumannii 007; [2]): 250 µg/mL
MIC of peptidomimetics (S. aureus 04; [2]): 62.5 µg/mL
MIC of peptidomimetics (S. aureus 117; [2]): 62.5 µg/mL
Geometric mean MICE (Enterobacteriaceae): 164.9 µg/mL

C[C@@H](c1ccccc1)N(CC(N)=O)C(=O)CN(CCCCN)C(=O)CN(C(=O)CN(C(=O)CN(CCCCN)C(=O)CN(C(=O)CN(C(=O)CN(CCCCN)C(=O)CN(C(=O)CN(C(=O)CNCCCCN)[C@@H](C)c1ccccc1)[C@@H](C)c1ccccc1)[C@@H](C)c1ccccc1)[C@@H](C)c1ccccc1)[C@@H](C)c1ccccc1)[C@@H](C)c1ccccc1 [TM6] (H-[Nlys][Nspe][Nspe][Nlys][Nspe][Nspe][Nlys][Nspe][Nspe][Nlys][Nspe]-NH2)
MIC of peptidomimetics (E. coli 005; [2]): 62.5 µg/mL
MIC of peptidomimetics (E. coli 005; value in brackets): 37.7 µM
MIC of peptidomimetics (En. cloacae 003; [2]): 15.6 µg/mL
MIC of peptidomimetics (En. cloacae 003; value in brackets): 9.4 µM
MIC of peptidomimetics (En. cloacae 001; [2]): 15.6 µg/mL
MIC of peptidomimetics (En. cloacae 001; value in brackets): 9.4 µM
MIC of peptidomimetics [1, 2]: 31.25 µg/mL
MIC of peptidomimetics ([1]; value in brackets): 18.8 µM
MIC of peptidomimetics (K. pneumoniae JIE4212; [2]): 15.6 µg/mL
MIC of peptidomimetics (K. pneumoniae JIE4212; value in brackets): 9.4 µM
MIC of peptidomimetics (K. pneumoniae JIE2709; [2]): 31.3 µg/mL
MIC of peptidomimetics (K. pneumoniae JIE2709; value in brackets): 18.8 µM
MIC of peptidomimetics (E. coli 0010; [2]): 62.5 µg/mL
MIC of peptidomimetics (E. coli 0010; value in brackets): 37.7 µM
MIC of peptidomimetics (E. coli 0011; [2]): 15.6 µg/mL
MIC of peptidomimetics (E. coli 0011; value in brackets): 9.4 µM
MIC of peptidomimetics (A. baumannii 006; [2]): 7.8 µg/mL
MIC of peptidomimetics (A. baumannii 006; value in brackets): 4.7 µM
MIC of peptidomimetics (E. coli 0015; [2]): 62.5 µg/mL
MIC of peptidomimetics (E. coli 0015; value in brackets): 37.7 µM
MIC of peptidomimetics (En. cloacae 005; [2]): 15.6 µg/mL
MIC of peptidomimetics (En. cloacae 005; value in brackets): 9.4 µM
MIC of peptidomimetics (S. aureus 105; [2]): 7.8 µg/mL
MIC of peptidomimetics (S. aureus 105; value in brackets): 4.7 µM
MIC of peptidomimetics (P. aeruginosa AR-1270; [2]): 31.3 µg/mL
MIC of peptidomimetics (P. aeruginosa AR-1270; value in brackets): 18.8 µM
MIC of peptidomimetics (P. aeruginosa 33; [2]): 31.3 µg/mL
MIC of peptidomimetics (P. aeruginosa 33; value in brackets): 18.8 µM
MIC of peptidomimetics (S. aureus 38; [2]): 7.8 µg/mL
MIC of peptidomimetics (S. aureus 38; value in brackets): 4.7 µM
MIC of peptidomimetics (A. baumannii 008; [2]): 15.6 µg/mL
MIC of peptidomimetics (A. baumannii 008; value in brackets): 9.4 µM
MIC of peptidomimetics (A. baumannii ATCC 19 606; [2]): 7.8 µg/mL
MIC of peptidomimetics (A. baumannii ATCC 19 606; value in brackets): 4.7 µM
MIC of peptidomimetics (A. baumannii 005; [2]): 7.8 µg/mL
MIC of peptidomimetics (A. baumannii 005; value in brackets): 4.7 µM
MIC of peptidomimetics (K. pneumoniae JIE2713; [2]): 62.5 µg/mL
MIC of peptidomimetics (K. pneumoniae JIE2713; value in brackets): 37.7 µM
MIC of peptidomimetics (P. aeruginosa 216; [2]): 15.6 µg/mL
MIC of peptidomimetics (P. aeruginosa 216; value in brackets): 9.4 µM
MIC of peptidomimetics (A. baumannii 007; [2]): 7.8 µg/mL
MIC of peptidomimetics (A. baumannii 007; value in brackets): 4.7 µM
MIC of peptidomimetics (S. aureus 04; [2]): 7.8 µg/mL
MIC of peptidomimetics (S. aureus 04; value in brackets): 4.7 µM
MIC of peptidomimetics (S. aureus 117; [2]): 7.8 µg/mL
MIC of peptidomimetics (S. aureus 117; value in brackets): 4.7 µM
Geometric mean MICE (Enterobacteriaceae): 29.1 µg/mL
